Measured values taken from patent publication US20240360122A1, “POLYMORPHIC FORMS AND SALTS OF A GLP-1R AGONIST” (Terns (Suzhou) Biotechnology Co., Ltd., priority 2023, published 2024).

How the values were obtained:
Type in all cases: physicochemical
[1] = Approximate solubility in different solvents at RT
Protocol: For each experiment, approximately 2 mg of sample was added into a 3-mL glass vial. Corresponding solvents were then added stepwise (50/50/200/700/1000 μL) into the vials until the solids were dissolved visually or a total volume of 2 mL was reached. Solubility results summarized in Table 64 to Table 66 were used to guide the solvent selection in polymorph screening design.

[2] = Kinetic solubility in water and bio-relevant media (SGF, FaSSIF, FeSSIF) at 37° C.; conditions: for FC: Form change: residual solids by XRPD
Protocol: Add 4 mL of medium (H2O, SGF, FaSSIF and FeSSIF). • Rolled at 37° C. (˜25 rpm). Sampling at 1, 2, 4 and 24 hrs. • At each time-point, sampled 0.8 mL of solution or suspension into a centrifuge tube prior to centrifugation (12000 rpm, 37° C., 5 min) and filtration through 0.45 μm PTFE membrane. • Tested pH and concentration for the filtrate. Analyze residual solids by XRPD.
0.1 g of NaCl and 0.05 g of Triton X-100 were weighed into a 50-mL volumetric flask. Purified water was added to dissolve the solid. 67.5 μL HCl (38%, 12M) was added after the solid was dissolved completely. pH was then adjusted to 1.8 using HCl (1 M) or NaOH (1 M). Purified water was added to the volume.
0.17 g of anhydrous NaH2PO4, 0.021 g of NaOH and 0.31 g of NaCl were weighed into a 50-mL volumetric flask. ˜48 mL purified water was added to dissolve the solid. pH was adjusted to 6.5 using 1M HCl or 1M NaOH. Purified water was then added to the volume. 0.11 g of SIF powder was added into the volumetric flask.
0.41 mL of acetic acid, 0.20 g of NaOH and 0.59 g of NaCl were weighed into a 50-mL volumetric flask. ˜48 mL purified water was added to dissolve the solid. pH was adjusted to 5.0 using 1M HCl or 1M NaOH. Purified water was then added to the volume. 0.56 g of SIF powder was added into the volumetric flask.

[3] = Hygroscopicity by DVS at 25° C.
Protocol: DVS was measured via a SMS (Surface Measurement Systems) DVS Intrinsic. The relative humidity at 25° C. were calibrated against deliquescence point of LiCl, Mg(NO3)2 and KCl.

[4] = Solid state stability at 25° C./60% RH and 40° C./75% RH for 1 week; conditions: for HPLC peak Area, RRT 1.00: main peak
Protocol: Each sample was added into a glass vial, sealed by parafilm with several holes, and kept under tested conditions. After one week, samples were taken for XRPD and HPLC purity test.

## N#Cc1ccc(COc2cccc(C3CCN(Cc4nc5ccc(C(=O)O)cc5n4Cc4cncs4)CC3)n2)c(F)c1 [Freeform Type D]
[1]; 1,4-Dioxane, RT
  Approximate solubility: S < 1.1 mg/mL
[1]; 2-MeTHF, RT
  Approximate solubility: S < 1.0 mg/mL
[1]; Anisole, RT
  Approximate solubility: S < 1.0 mg/mL
[1]; CHCl3, RT
  Approximate solubility: S < 1.1 mg/mL
[1]; CPME, RT
  Approximate solubility: S < 0.9 mg/mL
[1]; DMSO, RT
  Approximate solubility: S > 44.0 mg/mL
[1]; H2O, RT
  Approximate solubility: S < 1.1 mg/mL
[1]; IPA, RT
  Approximate solubility: S < 1.1 mg/mL
[1]; MTBE, RT
  Approximate solubility: S < 1.1 mg/mL
[1]; Toluene, RT
  Approximate solubility: S < 1.0 mg/mL
[1]; n-Heptane, RT
  Approximate solubility: S < 1.0 mg/mL

## N#Cc1ccc(COc2cccc(C3CCN(Cc4nc5ccc(C(=O)O)cc5n4Cc4cncs4)CC3)n2)c(F)c1 [Fumarate Type A]
[2]; FaSSIF, 37° C., 1 hr
  FC: Form change: No
[2]; FaSSIF, 37° C., 2 hrs
  FC: Form change: No
[2]; FaSSIF, 37° C., 4 hrs
  FC: Form change: No
[2]; FaSSIF, 37° C., 24 hrs
  FC: Form change: No
[2]; FeSSIF, 37° C., 1 hr
  FC: Form change: No
[2]; FeSSIF, 37° C., 2 hrs
  FC: Form change: No
[2]; FeSSIF, 37° C., 4 hrs
  FC: Form change: No
[2]; FeSSIF, 37° C., 24 hrs
  FC: Form change: No
[2]; H2O, 37° C., 1 hr
  FC: Form change: No
[2]; H2O, 37° C., 2 hrs
  FC: Form change: No
[2]; H2O, 37° C., 4 hrs
  FC: Form change: No
[2]; H2O, 37° C., 24 hrs
  FC: Form change: No
[2]; SGF, 37° C., 1 hr
  FC: Form change: No
[2]; SGF, 37° C., 2 hrs
  FC: Form change: No
[2]; SGF, 37° C., 4 hrs
  FC: Form change: No
[2]; SGF, 37° C., 24 hrs
  FC: Form change: No
[2]; all the media (H2O, SGF, FaSSIF, FeSSIF), after 24 hrs
  form change of residual solids (XRPD) after solubility test: No form change
[2]; all the media, 37° C.
  solubility compared with the other selected salts: lowest solubility
[3]; 25° C./80% RH
  water uptake (DVS): 0.12%
[3]; DVS, 25° C.
  hygroscopicity: non-hygroscopic
[3]; DVS, 25° C./80% RH
  Water uptake at 25° C./80% RH: 0.12 wt %
[3]; XRPD after DVS test
  For change after DVS: No
[3]; after DVS test
  form change after DVS test (XRPD): no form change
[4]; 25° C./60% RH, 1 week
  HPLC peak Area, RRT 0.73: 0.14%
  HPLC peak Area, RRT 0.80: 0.05%
  HPLC peak Area, RRT 0.83: 1.98%
  HPLC peak Area, RRT 0.90: 0.10%
  HPLC peak Area, RRT 0.99: 0.06%
  HPLC peak Area, RRT 1.05: 0.28%
  HPLC peak Area, RRT 1.10: 0.89%
  HPLC peak Area, RRT 1.12: 0.06%
  HPLC peak Area, RRT 1.15: 0.25%
  HPLC peak Area, RRT 1.34: 0.07%
  HPLC peak Area, RRT 1.00: 96.13%
[4]; 25° C./60% RH/Open/1 week
  Form change: No
  Purity: 96.13 Area %
[4]; 25° C./60% RH/open and 40° C./75% RH/open, 1 week
  solid-state stability: form change and purity decrease: no form change or significant purity decrease
[4]; 40° C./75% RH, 1 week
  HPLC peak Area, RRT 0.73: 0.13%
  HPLC peak Area, RRT 0.80: <0.05%
  HPLC peak Area, RRT 0.83: 1.89%
  HPLC peak Area, RRT 0.90: 0.09%
  HPLC peak Area, RRT 0.99: <0.05%
  HPLC peak Area, RRT 1.05: 0.29%
  HPLC peak Area, RRT 1.10: 0.87%
  HPLC peak Area, RRT 1.12: 0.05%
  HPLC peak Area, RRT 1.15: 0.26%
  HPLC peak Area, RRT 1.34: 0.06%
  HPLC peak Area, RRT 1.00: 96.37%
[4]; 40° C./75% RH/Open/1 week
  Form change: No
  Purity: 96.37 Area %
[4]; Initial
  HPLC peak Area, RRT 0.73: 0.13%
  HPLC peak Area, RRT 0.80: <0.05%
  HPLC peak Area, RRT 0.83: 1.91%
  HPLC peak Area, RRT 0.90: 0.09%
  HPLC peak Area, RRT 0.99: <0.05%
  HPLC peak Area, RRT 1.05: 0.27%
  HPLC peak Area, RRT 1.10: 0.87%
  HPLC peak Area, RRT 1.12: 0.05%
  HPLC peak Area, RRT 1.15: 0.24%
  HPLC peak Area, RRT 1.34: 0.06%
  Purity: 96.37 Area %
  HPLC peak Area, RRT 1.00: 96.37%
